According to paper PMC11372076, “A dual inhibitor of PIP5K1C and PIKfyve prevents SARS-CoV-2 entry into cells” (Experimental & Molecular Medicine, 2024):

Key:
Assay type in all cases: cell-based
[1] = tested on: GFP-PIKfyve; assay: Cellular thermal shift assay (CETSA); details: versus DMSO control, Western blot
Procedure: (§1) The chemically treated cells were heated to 56 °C for 3 min to denature and precipitate nontargeted proteins. The heated cells were immediately snap-frozen in liquid nitrogen overnight. After the cells were frozen and thawed twice, the tubes were briefly vortexed. The resulting cell lysates were subjected to SDS‒PAGE.
(§2) Fig. 1 UNI418 specifically targets PIP5K1 and PIKfyve. a Chemical structure of UNI418. The 4-quinazolinamine core is highlighted in green. b Table of the kinase profiling analysis. Inhibition of several kinases was determined at a 1 μM concentration of UNI418 and analyzed by the SelectScreen Kinase Profiling Service (Thermo Fisher Scientific). c Cellular thermal shift assay. Ectopically expressed GFP-PIP5K1C and GFP-PIKfyve were heated to the indicated temperatures with/without UNI418, and the presence of protein in the soluble fraction was analyzed by Western blot analysis. […]

[2] = tested on: GFP-PIP5K1C; assay: Cellular thermal shift assay (CETSA); details: versus DMSO control, Western blot
Procedure: as §1, §2

[3] = tested on: RPE1 cells; assay: Western blot of autophagy-monitoring proteins SQSTM1/p62 and LC3-II
Description: Fig. 2 UNI418 inhibits autophagy. a Western blot analysis of p62, LC3B-I, LC3B-II and GAPDH in the presence of UNC3230, apilimod and UNI418. b Immunofluorescence staining with LC3B (green) and p62 (red) antibodies upon treatment with UNC3230, apilimod and UNI418, and images within the white rectangular boxes are magnified on the right side. Scale bar, 20 µm. c The area of fluorescence intensity from immunofluorescence images (b) was quantified after UNC3230, apilimod and UNI418 treatments. d, e Quantification of autophagic flux under normal conditions and under HBSS-induced starvation conditions with or without UNI418 treatment. RPE1 cells were treated with UNI418 (0.5 µM or 1 µM) for 2 h in the presence or absence of a lysosomal inhibitor (bafilomycin A1, BFA). Representative Western blot images (d) and the graph showing the average of 4 independent experiments (e). The error bars indicate the S.D. Statistical analysis was performed using two-way ANOVA; *p < 0.05, ***p < 0.001.
Supplementary Materials and Methods
The whole cell extracts were prepared by lysis of harvested cells with M -PER Mammalian protein extraction reagent (Thermo Fisher Scientific). The protein concentrations were determined by Bradford protein assay (Bio- Rad). The 10 to 20 μ g of prepared proteins were separated by the SDS-PAGE and transferred to PVDF membrane, which were then blocked in 5% skim milk for 30 minutes at room temperature. […] The images were obtained and quantified by Fusion solo ChemiDoc system (Vilber).
Autophagic flux assay was analyzed essentially as previously described1,2.
Briefly, RPE1 cells were treated with UNI418 (0, 0.5, or 1 µM) for 2 h with/without bafilomycin A1 to inhibit lysosomal degradation under normal growth media or HBSS. […] The LC3- II bands were quantified using Fusion Solo ChemiDoc system (Vilber) and normalized to GAPDH bands.
Autophagy flux was calculated by subsidizing the lysosomal inhibitor-treated cells to non- treatment cells in both normal growth media and HBSS-induced starvation with 0, 0.5, or 1 µM UNI418. […]

c1ccc(-c2cc(Nc3nc(-c4ccncc4)nc4ccccc34)n[nH]2)cc1 [UNI418, N -(5-phenyl-1 H -pyrazol-3-yl)-2-(4-pyridinyl)-4-quinazolinamine]
thermal stabilization of target protein in soluble fraction [1]: more stable at higher temperatures | thermal stabilization of target protein in soluble fraction [2]: more stable at higher temperatures | accumulation of SQSTM1/p62 and LC3-II [3]: strongly induced

Cc1cccc(/C=N/Nc2cc(N3CCOCC3)nc(OCCc3ccccn3)n2)c1 [apilimod]
accumulation of SQSTM1/p62 and LC3-II [3]: strongly induced
